Test results from US20260130933A1, “PHARMACEUTICAL COMPOSITION FOR PREVENTION OR TREATMENT OF NEPHROPATHY AND/OR DIABETES MELLITUS, COMPRISING ENAVOGLIFLOZIN” (DAEWOONG PHARMACEUTICAL CO., LTD., priority 2022, published 2026).

Test: Example 2: phase 3 trial, enavogliflozin 0.3 mg vs dapagliflozin 10 mg once a day for 24 weeks added to metformin in patients with type 2 diabetes (same efficacy, exploratory and safety endpoints)
Assay type: in vivo, human
Details: for HDL-C change from baseline, ANCOVA LS mean (SE) / HDL-C change from baseline, Mean (SD) / HDL-C change from baseline, Median / HDL-C, Mean (SD) / HDL-C, Median / LDL-C change from baseline, ANCOVA LS mean (SE) / LDL-C change from baseline, Mean (SD) / LDL-C change from baseline, Median / LDL-C, Mean (SD) / LDL-C, Median / Triglycerides change from baseline, ANCOVA LS mean (SE) / Triglycerides change from baseline, Mean (SD) / Triglycerides change from baseline, Median / Triglycerides, Mean (SD) / Triglycerides, Median: mPPS1; for Diastolic blood pressure change from baseline, ANCOVA LS mean (SE) / Diastolic blood pressure change from baseline, Mean (SD) / Diastolic blood pressure change from baseline, Median / Diastolic blood pressure, Mean (SD) / Diastolic blood pressure, Median / Systolic blood pressure change from baseline, ANCOVA LS mean (SE) / Systolic blood pressure change from baseline, Mean (SD) / Systolic blood pressure change from baseline, Median / Systolic blood pressure, Mean (SD) / Systolic blood pressure, Median: mPPS2
Protocol: Subjects who met the inclusion/exclusion criteria were administered a placebo of the clinical trial drug under single-blind (subject blinding) conditions during a 2-week run-in period while continuing to receive metformin. […] The randomized subjects were administered two tablets of the clinical trial drug for each administration group once a day, and then visited the institution at weeks 6, 12, 18, and 24 during the 24-week administration period to conduct efficacy and safety evaluations.
• 1. Change in HbA1c at week 24 after administration of clinical trial drug compared to Visit 2 (randomization)
• 1. Change in HbA1c at each time point of weeks 6, 12, and 18 after administration of clinical trial drug compared to Visit 2 (randomization) • 2. Change in FPG at each time point of weeks 6, 12, 18, and 24 after administration of clinical trial drug compared to Visit 2 (randomization) • 3. Proportion of subjects achieving HbA1c<7% at each time point of weeks 6, 12, 18, and 24 after administration of clinical trial drug • 4. Proportion of subjects achieving HbA1c<6.5% at each time point of weeks 6, 12, 18, and 24 after administration of clinical trial drug • 5. Proportion of subjects achieving therapeutic response (HbA1c change (HbA1c at Visit 2-HbA1c at each evaluation time point)>0.5% or HbA1c<7% at each evaluation time point compared to Visit 2 (randomization)) at each time point of weeks 6, 12, 18 and 24 after administration of clinical trial drug
• 1. Change in fasting c-peptide at each time point of weeks 6, 12, 18, and 24 after administration of clinical trial drug compared to Visit 2 (randomization) • 2. Change in body weight at each time point of weeks 6, 12, 18, and 24 after administration of clinical trial drug compared to Visit 2 (randomization) • 3. Change in fasting lipid concentration (total cholesterol, LDL-C, HDL-C, and triglycerides) at each time point of weeks 6, 12, 18, and 24 after administration of clinical trial drug compared to Visit 2 (randomization) • 4. Changes in systolic or diastolic blood pressure at each time point of weeks 6, 12, 18, and 24 after administration of clinical trial drug compared to Visit 2 (randomization) • 5. Changes in β-cell function and insulin resistance measured by HOMA-β and HOMA-IR at each time point of weeks 6, 12, 18, and 24 after administration of clinical trial drug compared to Visit 2 (randomization) • 6. Changes in renal function-related indicators (UACR, UGCR) measured by UACR at each time point of weeks 6, 12, 18, and 24 after administration of clinical trial drug compared to Visit 2 (randomization) • 7. Changes in obesity-related indicators (adiponectin, leptin) at each time point of weeks 6, 12, 18, and 24 after administration of clinical trial drug compared to Visit 2 (randomization)

CCOc1ccc(Cc2cc([C@@H]3O[C@H](CO)[C@@H](O)[C@H](O)[C@H]3O)ccc2Cl)cc1 [Dapagliflozin, reference compound]
Leptin change from baseline, ANCOVA LS mean (SE) (Week 12, PPS): -2.70 ng/mL | Leptin change from baseline, Mean (SD) (Week 12, PPS): -2.70 ng/mL | Leptin change from baseline, Median (Week 12, PPS): -1.94 ng/mL | Leptin, Mean (SD) (Week 12, PPS): 9.07 ng/mL | Leptin, Median (Week 12, PPS): 6.05 ng/mL | UACR change from baseline, ANCOVA LS mean (SE) (Week 12, PPS): -3.38 g/kg | UACR change from baseline, Mean (SD) (Week 12, PPS): -8380 mg/kg | UACR change from baseline, Median (Week 12, PPS): -1.80 g/kg | UACR, Mean (SD) (Week 12, PPS): 49420 mg/kg | UACR, Median (Week 12, PPS): 11.95 g/kg | UGCR change from baseline, ANCOVA LS mean (SE) (Week 12, PPS): 45.14 mg/mg | UGCR change from baseline, Mean (SD) (Week 12, PPS): 43.59 mg/mg | UGCR change from baseline, Median (Week 12, PPS): 40.62 mg/mg | UGCR, Mean (SD) (Week 12, PPS): 45.57 mg/mg | UGCR, Median (Week 12, PPS): 40.89 mg/mg | HDL-C change from baseline, ANCOVA LS mean (SE) (Week 12): 2.25(0.62) mg/dL | HDL-C change from baseline, Mean (SD) (Week 12): 2.65(5.61) mg/dL | HDL-C change from baseline, Median (Week 12): 2.00 mg/dL | HDL-C, Mean (SD) (Week 12): 49.29(9.21) mg/dL | HDL-C, Median (Week 12): 49.00 mg/dL | LDL-C change from baseline, ANCOVA LS mean (SE) (Week 12): 0.56(1.73) mg/dL | LDL-C change from baseline, Mean (SD) (Week 12): 1.33(16.02) mg/dL | LDL-C change from baseline, Median (Week 12): 2.00 mg/dL | LDL-C, Mean (SD) (Week 12): 77.54(25.39) mg/dL | LDL-C, Median (Week 12): 77.00 mg/dL | Triglycerides change from baseline, ANCOVA LS mean (SE) (Week 12): −10.10(4.92) mg/dL | Triglycerides change from baseline, Mean (SD) (Week 12): −14.35(70.12) mg/dL | Triglycerides change from baseline, Median (Week 12): -6.00 mg/dL | Triglycerides, Mean (SD) (Week 12): 119.06(50.67) mg/dL | Triglycerides, Median (Week 12): 104.00 mg/dL | Diastolic blood pressure change from baseline, ANCOVA LS mean (SE) (Week 12): −4.35 mmHg | Diastolic blood pressure change from baseline, Mean (SD) (Week 12): −4.06 mmHg | Diastolic blood pressure change from baseline, Median (Week 12): −3.00 mmHg | Diastolic blood pressure, Mean (SD) (Week 12): 71.86 mmHg | Diastolic blood pressure, Median (Week 12): 72.00 mmHg | Systolic blood pressure change from baseline, ANCOVA LS mean (SE) (Week 12): −6.12(1.07) mmHg | Systolic blood pressure change from baseline, Mean (SD) (Week 12): −5.86(11.46) mmHg | Systolic blood pressure change from baseline, Median (Week 12): −6.00 mmHg | Systolic blood pressure, Mean (SD) (Week 12): 121.46(12.64) mmHg | Systolic blood pressure, Median (Week 12): 123.00 mmHg | Adiponectin change from baseline, ANCOVA LS mean (SE) (Week 18, PPS): 1.29 µg/mL | Adiponectin change from baseline, Mean (SD) (Week 18, PPS): 1.28 µg/mL | Adiponectin change from baseline, Median (Week 18, PPS): 0.73 ng/mL | Adiponectin, Mean (SD) (Week 18, PPS): 7.98 µg/mL | Adiponectin, Median (Week 18, PPS): 7.08 µg/mL | HOMA-IR change from baseline, ANCOVA LS mean (SE) (Week 18, PPS): −1.47 | HOMA-IR change from baseline, Mean (SD) (Week 18, PPS): −1.61 | HOMA-IR change from baseline, Median (Week 18, PPS): −1.07 | HOMA-IR, Mean (SD) (Week 18, PPS): 2.28 | HOMA-IR, Median (Week 18, PPS): 2.07 | HOMA-β change from baseline, ANCOVA LS mean (SE) (Week 18, PPS): 13.49 | HOMA-β change from baseline, Mean (SD) (Week 18, PPS): 13.46 | HOMA-β change from baseline, Median (Week 18, PPS): 9.80 | HOMA-β, Mean (SD) (Week 18, PPS): 58.55 | HOMA-β, Median (Week 18, PPS): 51.80 | Leptin change from baseline, ANCOVA LS mean (SE) (Week 18, PPS): -1.23 ng/mL | Leptin change from baseline, Mean (SD) (Week 18, PPS): -1.20 ng/mL | Leptin change from baseline, Median (Week 18, PPS): -1.37 ng/mL | Leptin, Mean (SD) (Week 18, PPS): 10.72 ng/mL | Leptin, Median (Week 18, PPS): 6.16 ng/mL | UACR change from baseline, ANCOVA LS mean (SE) (Week 18, PPS): -12.95 g/kg | UACR change from baseline, Mean (SD) (Week 18, PPS): -20540 mg/kg | UACR change from baseline, Median (Week 18, PPS): -1.75 g/kg | UACR, Mean (SD) (Week 18, PPS): 37260 mg/kg | UACR, Median (Week 18, PPS): 11.60 g/kg | UGCR change from baseline, ANCOVA LS mean (SE) (Week 18, PPS): 42.72 mg/mg | UGCR change from baseline, Mean (SD) (Week 18, PPS): 41.06 mg/mg | UGCR change from baseline, Median (Week 18, PPS): 40.72 mg/mg | UGCR, Mean (SD) (Week 18, PPS): 43.00 mg/mg | UGCR, Median (Week 18, PPS): 40.86 mg/mg | HDL-C change from baseline, ANCOVA LS mean (SE) (Week 18): 3.08(0.67) mg/dL | HDL-C change from baseline, Mean (SD) (Week 18): 3.17(5.82) mg/dL | HDL-C change from baseline, Median (Week 18): 2.00 mg/dL | HDL-C, Mean (SD) (Week 18): 49.93(9.16) mg/dL | HDL-C, Median (Week 18): 49.00 mg/dL | LDL-C change from baseline, ANCOVA LS mean (SE) (Week 18): 2.58(1.89) mg/dL | LDL-C change from baseline, Mean (SD) (Week 18): 3.27(20.01) mg/dL | LDL-C change from baseline, Median (Week 18): 3.00 mg/dL | LDL-C, Mean (SD) (Week 18): 79.71(26.69) mg/dL | LDL-C, Median (Week 18): 80.00 mg/dL | Triglycerides change from baseline, ANCOVA LS mean (SE) (Week 18): 1.88(6.04) mg/dL | Triglycerides change from baseline, Mean (SD) (Week 18): −4.10(62.62) mg/dL | Triglycerides change from baseline, Median (Week 18): 1.00 mg/dL | Triglycerides, Mean (SD) (Week 18): 130.88(70.92) mg/dL | Triglycerides, Median (Week 18): 110.00 mg/dL | Diastolic blood pressure change from baseline, ANCOVA LS mean (SE) (Week 18): −4.10 mmHg | Diastolic blood pressure change from baseline, Mean (SD) (Week 18): −3.94 mmHg | Diastolic blood pressure change from baseline, Median (Week 18): −2.50 mmHg | Diastolic blood pressure, Mean (SD) (Week 18): 72.08 mmHg | Diastolic blood pressure, Median (Week 18): 71.00 mmHg | Systolic blood pressure change from baseline, ANCOVA LS mean (SE) (Week 18): −5.97(1.15) mmHg | Systolic blood pressure change from baseline, Mean (SD) (Week 18): −5.43(12.97) mmHg | Systolic blood pressure change from baseline, Median (Week 18): −5.00 mmHg | Systolic blood pressure, Mean (SD) (Week 18): 122.27(12.91) mmHg | Systolic blood pressure, Median (Week 18): 122.00 mmHg | Adiponectin change from baseline, ANCOVA LS mean (SE) (Week 24, PPS): 1.69 µg/mL | Adiponectin change from baseline, Mean (SD) (Week 24, PPS): 1.72 µg/mL | Adiponectin change from baseline, Median (Week 24, PPS): 1.06 ng/mL | Adiponectin, Mean (SD) (Week 24, PPS): 8.35 µg/mL | Adiponectin, Median (Week 24, PPS): 7.19 µg/mL | HOMA-IR change from baseline, ANCOVA LS mean (SE) (Week 24, PPS): −1.31 | HOMA-IR change from baseline, Mean (SD) (Week 24, PPS): −1.47 | HOMA-IR change from baseline, Median (Week 24, PPS): −1.17 | HOMA-IR, Mean (SD) (Week 24, PPS): 2.39
